Like-named read-outs stand apart in the source and are kept apart here. Where a SMILES comes first, the peptide text is derived from it. Bridges are numbered along the chain shown (N, C = ends). [ ]: non-standard residue; d: D form. Phe(3-Cl) = N[C@@H](Cc1cccc(Cl)c1)C(=O)O; hCys = N[C@@H](CCS)C(=O)O; Nle = CCCC[C@H](N)C(=O)O
What was measured:
[1] = test system: hepatoma cell line HCCLM3; format: cell-based
Experimental: (§1) The hepatoma cell line BEL7404 (purchased from The Chinese Academy of Sciences cell bank) was a cell line with high expression of YAP protein; HCCLM3 (purchased from The Chinese Academy of Sciences cell bank) was a cell line with low expression of YAP protein. The hepatoma cell lines (BEL7404 or HCCLM3) were inoculated into a 96-well plate at the concentration of 2000 cells/well, and incubated overnight in RPMI1640 containing 1% bovine serum at 37° C. The hepatoma cell lines were treated with polypeptides having different concentrations at 37° C. for 72 h.
(§2) Moreover, IC50 values of the cells in 1.1 were determined using CCK-8 kit.
(§3) The polypeptide represented by SEQ ID NO.:1 was further modified. The IC50 values of the polypeptides at a concentration of 1% in cell cultivating for 72 h were measured.

[2] = test system: hepatoma cell line BEL7404; format: cell-based; conditions: for YAP inhibitory activity: summary of Table 8 in words
Experimental: as §1, §2, §3

[3] = Table 8, at a concentration of 1% in cell cultivating for 72 h, unit inferred, read-out: IC50 HCCLM3
[4] = Table 8, at a concentration of 1% in cell cultivating for 72 h, unit inferred, read-out: IC50 BEL7404

With `CSCC[C@H](NC(=O)[C@H](CCCNC(=N)N)NC(=O)[C@@H](N)CCCNC(=N)N)C(=O)N[C@@H](CCCCN)C(=O)N[C@@H](Cc1c[nH]c2ccccc12)C(=O)N[C@@H](CCCCN)C(=O)N[C@@H](CCCCN)C(=O)N1CCC[C@H]1C(=O)N[C@@H](CCC(N)=O)C(=O)NCC(=O)N[C@@H](CCC(N)=O)C(=O)NCC(=O)N1CCC[C@H]1C(=O)N1CCC[C@H]1C(=O)N[C@@H](CO)C(=O)NCC(=O)N1CCC[C@H]1C(=O)NCC(=O)N[C@@H](CCC(N)=O)C(=O)N1CCC[C@H]1C(=O)N[C@@H](C)C(=O)N1CCC[C@H]1C(=O)N[C@@H](C)C(=O)O` [SEQ ID NO.: 16] the IC50 ([1]; 72 h) was over 1000 µM and the IC50 ([2]; 72 h) was 242 ± 27.2 µM.
In the case of `CC[C@H](C)[C@H](NC(=O)[C@H](CCCCN)NC(=O)[C@H](CCCCN)NC(=O)[C@H](Cc1c[nH]c2ccccc12)NC(=O)[C@H](CCCCN)NC(=O)[C@H](CCSC)NC(=O)[C@H](CCCNC(=N)N)NC(=O)[C@@H](N)CCCNC(=N)N)C(=O)N[C@H](C(=O)N[C@@H](Cc1c[nH]cn1)C(=O)N[C@H](C(=O)N[C@@H](CCCNC(=N)N)C(=O)NCC(=O)N[C@@H](CC(=O)O)C(=O)N[C@@H](CO)C(=O)N[C@@H](CCC(=O)O)C(=O)N[C@H](C(=O)N[C@@H](CC(=O)O)C(=O)N[C@@H](CC(C)C)C(=O)N[C@@H](CCC(=O)O)C(=O)N[C@@H](C)C(=O)N[C@@H](CC(C)C)C(=O)N[C@@H](Cc1ccccc1)C(=O)O)[C@@H](C)O)C(C)C)C(C)C` [SEQ ID NO.: 17], the IC50 ([1]; 72 h) is reported as over 1000 µM and the IC50 ([2]; 72 h) is reported as 211 ± 44.2 µM.
In the case of `CSCC[C@H](NC(=O)[C@H](CCCNC(=N)N)NC(=O)[C@@H](N)CCCNC(=N)N)C(=O)N[C@@H](CCCCN)C(=O)N[C@@H](Cc1c[nH]c2ccccc12)C(=O)N[C@@H](CCCCN)C(=O)N[C@@H](CCCCN)C(=O)N[C@H](C(=O)N[C@@H](C)C(=O)NCC(=O)N[C@@H](C)C(=O)N[C@@H](CC(C)C)C(=O)N[C@H](C(=O)N1CCC[C@H]1C(=O)N[C@@H](CCC(N)=O)C(=O)N[C@@H](Cc1c[nH]cn1)C(=O)N[C@H](C(=O)N[C@@H](CCCNC(=N)N)C(=O)N[C@@H](C)C(=O)N[C@@H](Cc1c[nH]cn1)C(=O)N[C@@H](CO)C(=O)N[C@@H](CO)C(=O)N1CCC[C@H]1C(=O)O)C(C)C)[C@@H](C)O)[C@@H](C)O` [SEQ ID NO.: 18], the IC50 ([1]; 72 h) is reported as over 1000 µM and the IC50 ([2]; 72 h) is reported as 816 ± 14.4 µM.
For `CSCC[C@H](NC(=O)[C@H](CCCNC(=N)N)NC(=O)[C@@H](N)CCCNC(=N)N)C(=O)N[C@@H](CCCCN)C(=O)N[C@@H](Cc1c[nH]c2ccccc12)C(=O)N[C@@H](CCCCN)C(=O)N[C@@H](CCCCN)C(=O)N1CCC[C@H]1C(=O)N[C@H](C(=O)NCC(=O)N[C@H](C(=O)N[C@H](C(=O)N[C@@H](CO)C(=O)NCC(=O)N1CCC[C@H]1C(=O)N[C@@H](C)C(=O)N[C@@H](C)C(=O)N[C@H](C(=O)N1CCC[C@H]1C(=O)N[C@H](C(=O)N[C@@H](C)C(=O)N[C@@H](CCC(N)=O)C(=O)N[C@@H](Cc1c[nH]cn1)C(=O)O)[C@@H](C)O)[C@@H](C)O)C(C)C)C(C)C)[C@@H](C)O` [SEQ ID NO.: 19], the IC50 ([1]; 72 h) was over 1000 µM and the IC50 ([2]; 72 h) was 763 ± 31.5 µM.
In the case of `CSCC[C@H](NC(=O)[C@H](CCC(=O)O)NC(=O)[C@H](Cc1c[nH]c2ccccc12)NC(=O)CNC(=O)[C@H](C)NC(=O)[C@@H]1CCCN1C(=O)[C@H](CCCCN)NC(=O)[C@H](CCCCN)NC(=O)[C@H](Cc1c[nH]c2ccccc12)NC(=O)[C@H](CCCCN)NC(=O)[C@H](CCSC)NC(=O)[C@H](CCCNC(=N)N)NC(=O)[C@@H](N)CCCNC(=N)N)C(=O)N[C@@H](C)C(=O)N[C@@H](CCCCN)C(=O)N[C@H](C(=O)N[C@@H](CO)C(=O)N[C@@H](CO)C(=O)NCC(=O)N[C@@H](CCC(N)=O)C(=O)N[C@@H](CCCNC(=N)N)C(=O)N[C@@H](Cc1ccc(O)cc1)C(=O)N[C@@H](Cc1ccccc1)C(=O)O)[C@@H](C)O` [SEQ ID NO.: 20], the IC50 ([1]; 72 h) is reported as over 1000 µM and the IC50 ([2]; 72 h) is reported as 444 ± 46.5 µM.
For `CCCC[C@@H]1NC(=O)[C@H](CCCCN)NC(=O)[C@H](CCCNC(=N)N)NC(=O)[C@H](CC(C)C)NC(=O)[C@@H](NC(=O)[C@H](Cc2cccc(Cl)c2)NC(=O)[C@@H]2CCCN2C(=O)[C@@H](N)C(C)C)CCSSC[C@@H](C(=O)N[C@@H](CCCCN)C(=O)N2CCC[C@H]2C(=O)N2CCC[C@H]2C(=O)N[C@@H](CCCNC(=N)N)C(=O)N[C@@H](CCCNC(=N)N)C(=O)N[C@@H](CCSC)C(=O)N[C@@H](CCCCN)C(=O)N[C@@H](Cc2c[nH]c3ccccc23)C(=O)N[C@@H](CCCCN)C(=O)N[C@@H](CCCCN)C(=O)O)NC(=O)[C@H](Cc2ccccc2)NC(=O)[C@H](CO)NC(=O)[C@H](C)NC(=O)[C@@H]2CCCN2C1=O` [compound 21] (H-VP[Phe(3-Cl)][hCys]LRK[Nle]PASFCKPPRRMKWKK-OH; disulfide 4-13), the IC50 [1, 3] was 196 ± 16.3 µM and the IC50 [2, 4] was 28.6 ± 2.9 µM.
Work on `CCCC[C@@H]1NC(=O)[C@H](CCCCN)NC(=O)[C@H](CCCNC(=N)N)NC(=O)[C@H](CC(C)C)NC(=O)[C@@H](NC(=O)[C@H](Cc2cccc(Cl)c2)NC(=O)[C@@H]2CCCN2C(=O)[C@@H](N)C(C)C)CCSSC[C@@H](C(=O)N[C@@H](CCCCN)C(=O)N2CCC[C@H]2C(=O)N2CCC[C@H]2C(=O)N[C@@H](CCCNC(=N)N)C(=O)N[C@@H](CCCNC(=N)N)C(=O)N[C@@H](CCSC)C(=O)N[C@@H](CCCCN)C(=O)N[C@@H](Cc2c[nH]c3ccccc23)C(=O)N[C@@H](CCCCN)C(=O)N[C@@H](CCCCN)C(=O)O)NC(=O)[C@H](Cc2ccccc2)NC(=O)[C@H](CO)NC(=O)[C@H](CCC(=O)O)NC(=O)[C@@H]2CCCN2C1=O` [compound 22] (H-VP[Phe(3-Cl)][hCys]LRK[Nle]PESFCKPPRRMKWKK-OH; disulfide 4-13) yielded an IC50 [1, 3] of 181 ± 21.7 µM and an IC50 [2, 4] of 67.9 ± 6.4 µM.
In the case of `CCCC[C@@H]1NC(=O)[C@H](CCCCN)NC(=O)[C@H](CCCCN)NC(=O)[C@H](CC(C)C)NC(=O)[C@@H](NC(=O)[C@H](Cc2cccc(Cl)c2)NC(=O)[C@@H]2CCCN2C(=O)[C@@H](N)C(C)C)CCSSC[C@@H](C(=O)N[C@@H](CCCCN)C(=O)N2CCC[C@H]2C(=O)N2CCC[C@H]2C(=O)N[C@@H](CCCNC(=N)N)C(=O)N[C@@H](CCCNC(=N)N)C(=O)N[C@@H](CCSC)C(=O)N[C@@H](CCCCN)C(=O)N[C@@H](Cc2c[nH]c3ccccc23)C(=O)N[C@@H](CCCCN)C(=O)N[C@@H](CCCCN)C(=O)O)NC(=O)[C@H](Cc2ccccc2)NC(=O)[C@H](CO)NC(=O)[C@H](C)NC(=O)[C@@H]2CCCN2C1=O` [compound 23] (H-VP[Phe(3-Cl)][hCys]LKK[Nle]PASFCKPPRRMKWKK-OH; disulfide 4-13), the IC50 [1, 3] is reported as 129 ± 26.4 µM and the IC50 [2, 4] is reported as 37.2 ± 1 µM.
In the case of `CCCC[C@@H]1NC(=O)[C@H](CCCNC(=N)N)NC(=O)[C@H](CCCCN)NC(=O)[C@H](CC(C)C)NC(=O)[C@@H](NC(=O)[C@H](Cc2cccc(Cl)c2)NC(=O)[C@@H]2CCCN2C(=O)[C@@H](N)C(C)C)CCSSC[C@@H](C(=O)N[C@@H](CCCCN)C(=O)N2CCC[C@H]2C(=O)N2CCC[C@H]2C(=O)N[C@@H](CCCNC(=N)N)C(=O)N[C@@H](CCCNC(=N)N)C(=O)N[C@@H](CCSC)C(=O)N[C@@H](CCCCN)C(=O)N[C@@H](Cc2c[nH]c3ccccc23)C(=O)N[C@@H](CCCCN)C(=O)N[C@@H](CCCCN)C(=O)O)NC(=O)[C@H](Cc2ccccc2)NC(=O)[C@H](CO)NC(=O)[C@H](C)NC(=O)[C@@H]2CCCN2C1=O` [compound 24] (H-VP[Phe(3-Cl)][hCys]LKR[Nle]PASFCKPPRRMKWKK-OH; disulfide 4-13), the IC50 [1, 3] is reported as 67.3 ± 38.5 µM and the IC50 [2, 4] is reported as 25.7 ± 3 µM.
With `CCCC[C@@H]1NC(=O)[C@H](CCCCN)NC(=O)[C@H](CCCCN)NC(=O)[C@H](CC(C)C)NC(=O)[C@@H](NC(=O)[C@H](Cc2cccc(Cl)c2)NC(=O)[C@@H]2CCCN2C(=O)[C@H](C)N)CCSSC[C@@H](C(=O)N[C@@H](CCCCN)C(=O)N2CCC[C@H]2C(=O)N2CCC[C@H]2C(=O)N[C@@H](CCCNC(=N)N)C(=O)N[C@@H](CCCNC(=N)N)C(=O)N[C@@H](CCSC)C(=O)N[C@@H](CCCCN)C(=O)N[C@@H](Cc2c[nH]c3ccccc23)C(=O)N[C@@H](CCCCN)C(=O)N[C@@H](CCCCN)C(=O)O)NC(=O)[C@H](Cc2ccccc2)NC(=O)[C@H](CO)NC(=O)[C@H](CC(=O)O)NC(=O)[C@@H]2CCCN2C1=O` [compound 25] (H-AP[Phe(3-Cl)][hCys]LKK[Nle]PDSFCKPPRRMKWKK-OH; disulfide 4-13) the IC50 [1, 3] was over 1000 µM and the IC50 [2, 4] was 119 ± 7.1 µM.
Work on `CCCC[C@@H]1NC(=O)[C@@H](NC(=O)[C@H](Cc2cccc(Cl)c2)NC(=O)[C@@H]2CCCN2C(=O)[C@H](C)N)CCSSC[C@@H](C(=O)N[C@@H](CCCCN)C(=O)N2CCC[C@H]2C(=O)N2CCC[C@H]2C(=O)N[C@@H](CCCNC(=N)N)C(=O)N[C@@H](CCCNC(=N)N)C(=O)N[C@@H](CCSC)C(=O)N[C@@H](CCCCN)C(=O)N[C@@H](Cc2c[nH]c3ccccc23)C(=O)N[C@@H](CCCCN)C(=O)N[C@@H](CCCCN)C(=O)O)NC(=O)[C@H](Cc2ccccc2)NC(=O)[C@H](CO)NC(=O)[C@H](CC(=O)O)NC(=O)[C@@H]2CCCN2C(=O)[C@H](CCCC)NC(=O)[C@H](CCCCN)NC(=O)[C@H](CCCCN)NC1=O` [compound 26] (H-AP[Phe(3-Cl)][hCys][Nle]KK[Nle]PDSFCKPPRRMKWKK-OH; disulfide 4-13) yielded an IC50 [1, 3] of over 1000 µM and an IC50 [2, 4] of 62.7 ± 5.9 µM.
For “VP(3-Cl)F-Hcy-LKK-Nle-PASFCKPP RRMKWKK [SEQ ID NO.: 23]”, the YAP inhibitory activity [2] was “best inhibitory activity”.
In the case of “VP(3-Cl)F-Hcy-LRK-Nle-PASFCKPP RRMKWKK [SEQ ID NO.: 21]”, the YAP inhibitory activity [2] is reported as “best inhibitory activity”.
For “VP(3-Cl)F-LKK-Hcy-Nle-PASFKPPC RRMKWKK [SEQ ID NO.: 33]”, the YAP inhibitory activity [2] was “best inhibitory activity”.
“VP-Hcy-(3-Cl)F-LKK-Nle-PASCFKPP RRMKWKK [SEQ ID NO.: 31]” was tested, and the YAP inhibitory activity [2] was “best inhibitory activity”.

— patent publication US10526385B2, “YAP protein inhibiting polypeptide and application thereof” (BAO KANG BIOMEDICAL HEALTHCARE INC, priority 2013, dated 2020)
